Reference: patent US20080039455A1, “PYRAZOLOPYRIMIDINES AND SALTS THEREOF, PHARMACEUTICAL COMPOSITIONS COMPRISING SAME, METHODS OF PREPARING SAME AND USES OF SAME” (priority 2006, published 2008)

target: T1, human recombinant ALK1 (GST fused to ALK1 intracellular domain [His142-Gln503]) (Homo sapiens, UniProt P37023); assay: ALK1-Kinase Flashplate-Assay; format: biochemical; details: 0.5 μM ATP, biotinylated α-casein substrate; read-out: Assay 1 (ALK1-Kinase Flashplate-Assay IC50 class)
T1 construct: GST fused to ALK1 intracellular domain [His142-Gln503]; made in house
T1 sequence (P37023 142-503): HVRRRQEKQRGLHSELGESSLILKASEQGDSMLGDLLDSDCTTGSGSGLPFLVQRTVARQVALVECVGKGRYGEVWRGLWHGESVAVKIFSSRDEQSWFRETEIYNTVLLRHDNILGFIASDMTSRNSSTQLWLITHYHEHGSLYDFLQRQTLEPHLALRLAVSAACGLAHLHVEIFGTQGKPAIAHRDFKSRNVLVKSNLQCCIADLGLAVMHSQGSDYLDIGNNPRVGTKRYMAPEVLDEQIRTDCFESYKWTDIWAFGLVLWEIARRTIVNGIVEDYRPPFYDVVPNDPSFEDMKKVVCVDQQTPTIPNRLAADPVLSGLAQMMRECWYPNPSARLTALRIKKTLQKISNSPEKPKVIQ
From the text: Biological Assay 1: ALK1-Kinase Flashplate-Assay
ALK1 phosphorylates serine/threonine residues of the biotinylated substrate bovine α-casein in the presence of [γ-^33P]ATP. Detection of the radiolabeled phosphorylated product is achieved by binding to streptavidine-coated Flashplates. The biotin moieties of biotinylated casein bind with high affinity to the streptavidine. The radiolabeled biotinylated casein produced by the ALK1 kinase reaction is able to generate a […] signal when strepatavidine-mediated binding occurs to the scintillant-containing surface of the Flashplates due to the close proximity of the radiolabel and the scintillant. […] The signals obtained are therefore indicative of the ALK1 kinase activity. Measurement is performed in a Perkin-Elmer TopCount or Perkin-Elmer ViewLux instrument.
Enzyme: Purified human recombinant ALK1 (GST fused to ALK1 intracellular domain [His142-Gln503]) produced in-house, aliquots stored at −80° C.;
Diluted enzyme working solution: 2.5 ng/μl ALK1 (in assay buffer) freshly prepared and chilled on ice until use.
Substrate: biotinylated bovine α-casein. Unbiotinylated casein obtained from Sigma was biotinylated by standard procedures using N-hydroxysuccinimide (NHS) ester of biotin.
Substrate working solution: 0.83 μM ATP, 1.67 μM biotinylated a-casein, 7.4 nCi [γ-^33P]ATP/μl in assay buffer
Assay plates: 384-well plates, small volume, white, Greiner (# 784075)
Flashplates: Streptavidin-coated Flashplates, Perkin Elmer (384-well # SPM410A)
Assay buffer: 50 mM Tris/HCl pH 8.0, 1 mM MnCl2, 1 mM DTT, 0.01% NP40, 0.5× Complete EDTA-free
Stop solution: 33.3 μM ATP, 33.3 mM EDTA, 0.07% Triton X-100 in PBS
Saturating buffer for Flashplates: 100 μM ATP, 0.2% Triton X-100 in PBS
Sealing tape: Greiner (# 676080)
Protocol for small volume 5 μl assay (all steps are performed at 20° C., pipetted with CyBi-Well and Multidrop Micro): • 1. 50 nl or 250 nl compound in 100% DMSO • 2. addition of 3 μl substrate working solution with CyBi-Well pipettor • 3. addition of 2 μl enzyme working solution with Multidrop Micro incubation for 60 min at room temperature • 4. addition of 15 μl Stop solution with CyBi-Well pipettor • 5. transfer of 18 μl assay mixture to Flashplates** with CyBi-Well pipettor incubation for at least 3 h at room temperature or over night at 4° C. to allow binding to the streptavidine-coated Flashplates • 6. washing the Flashplates 3 times with 50 μl PBS without Ca++ and Mg++ • 7. sealing with sealing tape • 8. Measurement in Topcount (60 sec/well) **Saturation of Flashplates: The Flashplates are preincubated for at least 1 hour with 50 μl saturating buffer. Remove 18 μl from the 50 μl and transfer 18 μl of the assay mixture to the Flashplate.
Final concentrations, calculated for 5 μl reaction volume: ALK1 5 ng/well; 1 μM biotinylated α-casein; 0.5 μM ATP; 22 nCi/well [γ-^33P]ATP; 1 mM MnCl2; 1 mM DTT; 50 mM Tris-HCl; pH 8.0; 0.01% NP40; 0.5× Complete EDTA-free; 1% or 5% DMSO.
The data were normalised (enzyme reaction without inhibitor=0% inhibition, enzyme reaction in the presence of 10 mM EDTA=100% inhibition) and IC50 values were calculated by a 4 parameter fit using an in-house software.

Structure (SMILES)	IC50 [nM]
COc1cc(Nc2ccn3ncc(-c4cc(OC)c(OC)c(OC)c4)c3n2)cc(OC)c1OC [Example 77, (3,4,5-Trimethoxy-phenyl)-[3-(3,4,5-trimethoxy-phenyl)-pyrazolo[1,5-a]pyrimidin-5-yl]-amine]	< 1000
COc1cc(Nc2ccn3ncc(-c4cccc(C(=O)NCCO)c4)c3n2)cc(OC)c1OC [Example 79, N-(2-Hydroxy-ethyl)-3-[5-(3,4,5-trimethoxy-phenylamino)-pyrazolo[1,5-a]pyrimidin-3-yl]-benzamide]	1000 to 10000
COc1cc(-c2cnn3ccc(Nc4ccc(C)c(NS(C)(=O)=O)c4)nc23)cc(OC)c1OC [Example 105, N-{2-Methyl-5-[3-(3,4,5-trimethoxy-phenyl)-pyrazolo[1,5-a]pyrimidin-5-ylamino]-phenyl}-methanesulfonamide]	< 1000
FC(F)(F)Oc1cccc(-c2cnn3ccc(NCc4ccncc4)nc23)c1 [Example 113, Pyridin-4-ylmethyl-[3-(3-trifluoromethoxy-phenyl)-pyrazolo[1,5-a]pyrimidin-5-yl]-amine]	< 1000
COc1cncc(-c2cnn3ccc(NC4CCC(O)CC4)nc23)c1 (stereo not shown) [Example 116, 4-[3-(5-Methoxy-pyridin-3-yl)-pyrazolo[1,5-a]pyrimidin-5-ylamino]-cyclohexanol]	1000 to 10000
N#Cc1ccc(-c2cnn3ccc(NCCO)nc23)cc1 [Example 119, 4-[5-(2-Hydroxy-ethylamino)-pyrazolo[1,5-a]pyrimidin-3-yl]-benzonitrile]	1000 to 10000
COc1cc(-c2cnn3ccc(NCCO)nc23)cc(OC)c1OC [Example 120, 2-[3-(3,4,5-Trimethoxy-phenyl)-pyrazolo[1,5-a]pyrimidin-5-ylamino]-ethanol]	< 1000
OCCNc1ccn2ncc(-c3ccc(Cl)cc3)c2n1 [Example 121, 2-[3-(4-Chloro-phenyl)-pyrazolo[1,5-a]pyrimidin-5-ylamino]-ethanol]	1000 to 10000
OCCNc1ccn2ncc(-c3cccc(OC(F)(F)F)c3)c2n1 [Example 122, 2-[3-(3-Trifluoromethoxy-phenyl)-pyrazolo[1,5-a]pyrimidin-5-ylamino]-ethanol]	1000 to 10000
COc1cncc(-c2cnn3ccc(NCCO)nc23)c1 [Example 123, 2-[3-(5-Methoxy-pyridin-3-yl)-pyrazolo[1,5-a]pyrimidin-5-ylamino]-ethanol]	< 1000
COc1cc(-c2cnn3ccc(NCc4cccnc4)nc23)cc(OC)c1OC [Example 126, Pyridin-3-ylmethyl-[3-(3,4,5-trimethoxy-phenyl)-pyrazolo[1,5-a]pyrimidin-5-yl]-amine]	1000 to 10000
FC(F)(F)Oc1cccc(-c2cnn3ccc(Nc4ccc(N5CCOCC5)cc4)nc23)c1 [Example 129, (4-Morpholin-4-yl-phenyl)-[3-(3-trifluoromethoxy-phenyl)-pyrazolo[1,5-a]pyrimidin-5-yl]-amine]	1000 to 10000
O=C(NCCO)c1cccc(-c2cnn3ccc(Nc4ccc(N5CCOCC5)cc4)nc23)c1 [Example 130, N-(2-Hydroxy-ethyl)-3-[5-(4-morpholin-4-yl-phenylamino)-pyrazolo[1,5-a]pyrimidin-3-yl]-benzamide]	1000 to 10000
COc1cc(-c2cnn3ccc(NCCN(C)C)nc23)cc(OC)c1OC [Example 134, N,N-Dimethyl-N-[3-(3,4,5-trimethoxy-phenyl)-pyrazolo[1,5-a]pyrimidin-5-yl]-ethane-1,2-diamine]	1000 to 10000
CN(C)CCNc1ccn2ncc(-c3ccc(C(=O)O)cc3)c2n1 [Example 136, 4-[5-(2-Dimethylamino-ethylamino)-pyrazolo[1,5-a]pyrimidin-3-yl]-benzoic acid]	1000 to 10000
COc1ccc(-c2cnn3ccc(NC4CCC(O)CC4)nc23)cc1 (stereo not shown) [Example 155, 4-[3-(4-Methoxy-phenyl)-pyrazolo[1,5-a]pyrimidin-5-ylamino]-cyclohexanol]	1000 to 10000
Oc1cccc(-c2cnn3ccc(NC4CCC(O)CC4)nc23)c1 (stereo not shown) [Example 156, 3-[5-(4-Hydroxy-cyclohexylamino)-pyrazolo[1,5-a]pyrimidin-3-yl]-phenol]	< 1000

The remaining lines, values ahead:

IC50 [nM]	Structure (SMILES)
1000 to 10000	OCCNc1ccn2ncc(-c3ccc(O)cc3)c2n1 [Example 74, 4-[5-(2-Hydroxy-ethylamino)-pyrazolo[1,5-a]pyrimidin-3-yl]-phenol]
1000 to 10000	O=C(O)CCc1ccc(-c2cnn3ccc(Nc4ccc(O)cc4)nc23)cc1 [Example 83, 3-{4-[5-(4-Hydroxy-phenylamino)-pyrazolo[1,5-a]pyrimidin-3-yl]-phenyl}-propionic acid]
1000 to 10000	COc1ccccc1-c1cnn2ccc(Nc3ccc(O)cc3)nc12 [Example 84, 4-[3-(2-Methoxy-phenyl)-pyrazolo[1,5-a]pyrimidin-5-ylamino]-phenol]
1000 to 10000	N#Cc1ccc(-c2cnn3ccc(Nc4ccc(O)cc4)nc23)cc1 [Example 86, 4-[5-(4-Hydroxy-phenylamino)-pyrazolo[1,5-a]pyrimidin-3-yl]-benzonitrile]
< 1000	COc1cncc(-c2cnn3ccc(Nc4ccc(O)cc4)nc23)c1 [Example 87, 4-[3-(5-Methoxy-pyridin-3-yl)-pyrazolo[1,5-a]pyrimidin-5-ylamino]-phenol]
< 1000	COc1ccc(Nc2ccn3ncc(-c4cc(OC)c(OC)c(OC)c4)c3n2)cn1 [Example 90, (6-Methoxy-pyridin-3-yl)-[3-(3,4,5-trimethoxy-phenyl)-pyrazolo[1,5-a]pyrimidin-5-yl]-amine]
1000 to 10000	COc1ccc(Nc2ccn3ncc(-c4cccc(C(=O)NCCO)c4)c3n2)cn1 [Example 92, N-(2-Hydroxy-ethyl)-3-[5-(6-methoxy-pyridin-3-ylamino)-pyrazolo[1,5-a]pyrimidin-3-yl]-benzamide]
< 1000	COc1cc(-c2cnn3ccc(Nc4ccc(C(C)C)cc4)nc23)cc(OC)c1OC [Example 97, (4-Isopropyl-phenyl)-[3-(3,4,5-trimethoxy-phenyl)-pyrazolo[1,5-a]pyrimidin-5-yl]-amine]
1000 to 10000	COc1cncc(-c2cnn3ccc(Nc4ccc(C)c(NS(C)(=O)=O)c4)nc23)c1 [Example 107, N-{5-[3-(5-Methoxy-pyridin-3-yl)-pyrazolo[1,5-a]pyrimidin-5-ylamino]-2-methyl-phenyl}-methanesulfonamide]
1000 to 10000	COc1cc(Nc2ccn3ncc(-c4cccc(O)c4)c3n2)cc(OC)c1OC [Example 138, 3-[5-(3,4,5-Trimethoxy-phenylamino)-pyrazolo[1,5-a]pyrimidin-3-yl]-phenol]
1000 to 10000	COc1ccc(-c2cnn3ccc(Nc4ccc(O)cc4)nc23)cc1 [Example 146, 4-[3-(4-Methoxy-phenyl)-pyrazolo[1,5-a]pyrimidin-5-ylamino]-phenol]
< 1000	COc1ccc(-c2cnn3ccc(Nc4ccc(O)cc4)nc23)cn1 [Example 147, 4-[3-(6-Methoxy-pyridin-3-yl)-pyrazolo[1,5-a]pyrimidin-5-ylamino]-phenol]
< 1000	COc1cc(-c2cnn3ccc(Nc4ccc(C)c(NS(C)(=O)=O)c4)nc23)ccc1O [Example 151]
1000 to 10000	COc1ccc(-c2cnn3ccc(NCc4ccncc4)nc23)cc1 [Example 154, [3-(4-Methoxy-phenyl)-pyrazolo[1,5-a]pyrimidin-5-yl]-pyridin-4-ylmethyl-amine]
